Experimental data reported in patent publication EP4151202A1, “COMPOSITION FOR PREVENTING AND/OR TREATING WHITE STRETCH MARKS” (LSI Silderma Ltd, priority 2021, dated 2023).

Test system: vergetures blanches
Assay: Tolerance of cutaneous application (side effects) on skin with white stretch marks
Type: in vivo, individus
Details: as active ingredient together with the excipients of formule 1
Text: Pour évaluer l'efficacité et la tolérance d'application de la composition de l'invention, 27 individus ont appliqué, matin et soir, pendant 90 jours, sur une zone de peau nettoyée avec vergetures blanches existantes, soit une composition selon l'invention, soit une composition « placebo ».
Chez chaque individu, la composition « placebo » a été appliquée sur une première moitié de la zone constituée par les vergetures blanches, et la composition de l'invention sur l'autre moitié de ladite zone. L'application cutanée sur les différentes zones de vergetures blanches a été accompagnée d'un léger massage pour favoriser la pénétration dans la peau de chacune des deux compositions. En moyenne, il a été appliqué entre 0,02 et 0,04 mL de composition / cm^2 de peau avec vergetures blanches.
On entend par « effet secondaire » des brûlures, irritations, démangeaisons ou tout autre type de modification de la peau au niveau de la surface d'application de la composition de l'invention. Ainsi, le palmitoyl-tripeptide-5, en tant que principe actif dermatologique, en association avec les excipients, est bien toléré en application cutanée.

Substance: palmitoyl-tripeptide-5
- tolérance en application cutanée: bien toléré
